The text below walks through data of paper PMC4229968, “The Inhibition of the Components from Shengmai Injection towards UDP-Glucuronosyltransferase” (Evidence-based Complementary and Alternative Medicine : eCAM, 2014).

One data set has as its target T1, UGT2B15 (Homo sapiens, UniProt P54855).
T1 construct: purchased BD Gentest Corp. (Woburn, MA, USA); host or cells: baculovirus-infected insect cells
T1 sequence (P54855 24-530): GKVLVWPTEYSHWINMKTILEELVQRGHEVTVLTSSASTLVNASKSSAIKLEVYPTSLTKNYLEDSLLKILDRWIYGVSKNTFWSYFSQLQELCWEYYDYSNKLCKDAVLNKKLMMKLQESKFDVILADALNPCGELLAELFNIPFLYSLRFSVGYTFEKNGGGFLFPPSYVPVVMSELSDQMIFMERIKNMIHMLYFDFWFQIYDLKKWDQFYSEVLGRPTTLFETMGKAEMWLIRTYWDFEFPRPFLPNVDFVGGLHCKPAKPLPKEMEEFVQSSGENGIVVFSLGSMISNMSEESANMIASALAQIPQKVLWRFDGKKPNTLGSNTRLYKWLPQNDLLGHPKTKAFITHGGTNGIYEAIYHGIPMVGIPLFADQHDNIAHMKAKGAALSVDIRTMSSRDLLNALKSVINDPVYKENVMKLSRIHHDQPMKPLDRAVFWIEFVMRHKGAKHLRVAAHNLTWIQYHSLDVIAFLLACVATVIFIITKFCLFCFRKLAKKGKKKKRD
The data set is described as follows: Recombinant UGT2B15-catalyzed 4-MU glucuronidation inhibition. Type of data set: in vitro ADME. The conditions noted are these: pH 7.4, probe 4-methylumbelliferone (4-MU), UGT2B15, 100 μM of compound, 4-MU substrate, read-out: residual activity. The source says: (§1) 4-Methylumbelliferone (4-MU), 4-methylumbelliferone-β-D-glucuronide (4-MUG), Tris-HCl, 7-hydroxycoumarin, and uridine-5′-diphosphoglucuronic acid (UDPGA) (trisodium salt) were purchased from Sigma-Aldrich (St. Louis, MO). Recombinant human UGT isoforms (UGT1A1, UGT1A3, UGT1A4, UGT1A6, UGT1A7, UGT1A8, UGT1A9, UGT1A10, UGT2B4, UGT2B7, and UGT2B15) expressed in baculovirus-infected insect cells were obtained from BD Gentest Corp. (Woburn, MA, USA). Ophiopogonin D (OD), ophiopogonin D′ (OD′), methylophiopogonanone A (MA), methylophiopogonanone B (MB), and ruscorectal (RU) were purchased from Sichuan Weikeqi Biotechnology Company (Chengdu, Sichuan, China). The purity of these compounds was above 95%. All other reagents were of HPLC grade or of the highest grade commercially available.
4-MU, the nonspecific probe substrate for all the UGT isoforms except UGT1A4, was used in the present study to initially screen the inhibition potential of maidong's components towards UGT isoforms as previously reported. In brief, the incubation system (total volume = 200 μL) consisted of recombinant UGTs, 5 mM UDPGA, 5 mM MgCl2, 50 mM Tris-HCl (pH = 7.4), and 4-MU in the absence or presence of different concentrations of maidong's components. The compounds were dissolved in DMSO, and the final concentration of DMSO was below 0.5% (v/v). The used incubation time and protein concentration were previously determined to ensure the reaction rate within the linear range. The 4-MU concentration was equal to known K m or S 50 values for each UGT isoform. After 5 min preincubation at 37°C, the incubation reaction was initiated via adding UDPGA to the mixture system. The reactions were quenched by adding 100 μL acetonitrile with 7-hydroxycoumarin (100 μM) as internal standard. Centrifuged at 20000 ×g for 10 min, an aliquot of supernatant was transferred to an autoinjector vial for HPLC analysis. The HPLC system (Shimadzu, Kyoto, Japan) contained a SCL-10A system controller, two LC-10AT pumps, a SIL-10A autoinjector, and a SPD-10AVP UV detector. Chromatographic separation was carried out using a C18 column (4.6 × 200 mm, 5 μm, Kromasil) at a flow rate of 1 mL/min and UV detector at 316 nm. The mobile phase consisted of acetonitrile (A) and H2O containing 0.5% (v/v) formic acid (B). The following gradient condition was used: 0–15 min, 95–40% B; 15–20 min, 10% B; 20–30 min, 95% B.

A further data set concerns the target T2, UGT1A4 (Homo sapiens, UniProt P22310).
T2 construct: purchased BD Gentest Corp. (Woburn, MA, USA); host or cells: baculovirus-infected insect cells
T2 sequence (P22310 29-534): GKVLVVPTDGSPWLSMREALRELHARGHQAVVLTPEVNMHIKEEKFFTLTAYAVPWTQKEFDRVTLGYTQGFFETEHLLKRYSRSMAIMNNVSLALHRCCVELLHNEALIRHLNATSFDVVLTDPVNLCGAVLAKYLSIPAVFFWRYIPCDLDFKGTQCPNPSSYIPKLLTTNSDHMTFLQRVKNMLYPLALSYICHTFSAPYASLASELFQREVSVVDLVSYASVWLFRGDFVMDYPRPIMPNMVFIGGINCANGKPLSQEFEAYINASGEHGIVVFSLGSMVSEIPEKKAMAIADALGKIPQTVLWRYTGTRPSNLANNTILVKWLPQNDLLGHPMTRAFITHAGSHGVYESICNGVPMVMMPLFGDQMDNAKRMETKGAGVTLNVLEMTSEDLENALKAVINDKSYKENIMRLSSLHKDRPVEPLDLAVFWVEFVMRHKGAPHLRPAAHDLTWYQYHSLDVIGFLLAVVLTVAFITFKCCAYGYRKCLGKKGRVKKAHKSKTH
The data set is described as follows: Recombinant UGT1A4-catalyzed trifluoperazine (TFP) glucuronidation inhibition. It counts as in vitro ADME. The conditions noted are these: for activity at 20 min, 100 μM: UGT1A4, 100 μM of compound, TFP substrate (40 μM), read-out: residual activity.
Excerpt: as §1
Therefore, UGT1A4-catalyzed trifluoperazine (TFP) glucuronidation was carried out to evaluate inhibition of maidong's components towards UGT1A4 activity. As previously reported, TFP (40 μM, near its K m value) was incubated with 0.1 mg/mL recombinant UGT1A4 for 20 min in the presence or absence of maidong's ingredients.
To determine the inhibition kinetic type and parameters (K i), the reaction velocity (V) was determined at multiple concentrations of maidong's components and 4-MU (or TFP). Dixon plot and Lineweaver-Burk plot were used to fit the data. The inhibition kinetic type was evaluated through determining the intersection point in the Dixon and Lineweaver-Burk plots.
K m value is the substrate concentration in which the velocity reached half of the maximum velocity (V max) of the reaction. K i value is the inhibition constant.

The mark [1] stands for this setting: human, probe trifluoperazine (TFP).

As for `Cc1c(O)c(C)c2c(c1O)C(=O)[C@H](Cc1ccc3c(c1)OCO3)CO2` [MA, methylophiopogonanone A], on UGT2B15, the activity at 100 µM was 23.8 ± 2.8%. Also, the activity at 20 min, 100 μM at UGT1A4 (setting [1]) was 70.4 ± 3.8%.

As to `COc1ccc(C[C@@H]2COc3c(C)c(O)c(C)c(O)c3C2=O)cc1` [MB, methylophiopogonanone B], at UGT2B15, the activity at 100 µM came out at 56.1 ± 9.8%. At UGT1A4 (setting [1]), the activity at 20 min, 100 μM was found to be 81.1 ± 8%.

As to `C[C@@H]1CC[C@@]2(OC1)O[C@H]1C[C@H]3[C@@H]4CC=C5C[C@@H](O)C[C@@H](O[C@@H]6O[C@H](C)[C@H](O)[C@H](O[C@@H]7OC[C@@H](O)[C@H](O)[C@H]7O)[C@H]6O[C@@H]6O[C@@H](C)[C@H](O)[C@@H](O)[C@H]6O)[C@]5(C)[C@H]4CC[C@]3(C)[C@H]1[C@@H]2C` [OD, ophiopogonin D], the activity at 100 µM on UGT2B15 is 36.9%. In addition, the activity at 20 min, 100 μM on UGT1A4 (setting [1]) is 24.6 ± 1.6%.

On to `C[C@@H]1CC[C@@]2(OC1)O[C@H]1C[C@H]3[C@@H]4CC=C5C[C@@H](O[C@@H]6O[C@H](CO)[C@@H](O)[C@H](O[C@@H]7OC[C@@H](O)[C@H](O)[C@H]7O)[C@H]6O[C@@H]6O[C@@H](C)[C@H](O)[C@@H](O)[C@H]6O)CC[C@]5(C)[C@H]4CC[C@]3(C)[C@H]1[C@@H]2C` [OD′, ophiopogonin D′], for which the activity at 100 µM on UGT2B15 is 35.5 ± 1.7%. Further, on UGT1A4 (setting [1]), the activity at 20 min, 100 μM was 21 ± 1.6%.

One may read the Ki as the dissociation constant of the complex between target and ligand, obtained from inhibition or displacement. By inhibition is commonly meant the change of the read-out against control, counted positive when it falls. As to `CC1CCC2(OC1)OC1CC3C4CC=C5CC(O)CC(O)C5(C)C4CCC3(C)C1C2C` (stereo not shown) [RU, ruscorectal], the activity at 100 µM on UGT2B15 came to 55.5 ± 19.6%. Moreover, the inhibition type entry at UGT1A4 (UGT1A4, TFP glucuronidation, Dixon and Lineweaver-Burk plots) is recorded as “competitive inhibition”. Moreover, the inhibition constant (Ki) on UGT1A4 (UGT1A4-catalyzed TFP glucuronidation, read-out: inhibition kinetic parameter (Ki)) turned out to be 20 nM. The inhibition at 20 min, 100 µM on UGT1A4 (human, probe trifluoperazine (TFP), 40 μM, UGT1A4, at 100 μM, read-out: inhibition percent) was ~100%. The activity at 20 min, 100 μM at UGT1A4 (setting [1]) stood at 0%.
